Earlier results as cited in US11331275B2 (Humanwell PuraCap Pharmaceuticals (Wuhan) Co., Ltd, priority 2017, dated 2022).

- solubility in acetonitrile (acetonitrile): soluble
- solubility in dimethylsulfoxide (dimethylsulfoxide): soluble
- solubility in methanol (methanol): slightly soluble
- solubility in water (water): almost insoluble
Structure (SMILES): C=C(c1ccc(C(=O)O)cc1)c1cc2c(cc1C)C(C)(C)CCC2(C)C [bexarotene, 4-[1-(5,6,7,8-tetrahydro-3,5,5,8,8-pentamethyl-2-naphthyl)ethenyl] benzoic acid]
